Values of other authors in patent US20070160663A1, “Single unit pharmaceutical composition comprising a mixture of fenofibrate and a modified release form of a homocysteine reducing agent” (GALEPHAR PHARMACEUTICAL RESEARCH, INC., priority 2003, published 2007).
Blank lines part the entries; values can stand above or below the compound they belong to.

Tmax (after oral administration): 3 to 6 h
SMILES: CC(C)OC(=O)C(C)(C)Oc1ccc(C(=O)c2ccc(Cl)cc2)cc1 [Fenofibrate, p-(4-chlorobenzoyl)-phenoxy isobutyrate isopropyl ester]

Tmax (time to peak plasma level) (after oral administration of a conventional marketed form such as Lipanthyl tablet or Fenogal capsule): 3 to 6 h
SMILES: CC(C)(Oc1ccc(C(=O)c2ccc(Cl)cc2)cc1)C(=O)O [Fenofibric acid]

elimination half-life (in vivo): 3 h
SMILES: Nc1nc2ncc(CNc3ccc(C(=O)N[C@@H](CCC(=O)O)C(=O)O)cc3)nc2c(=O)[nH]1 [folic acid]
